Non-standard residues stand in square brackets, D forms with d. Residues, ends and D or L forms follow the SMILES beside them. No end group written: not given here.
Key:
HUVEC [1] = type: cell-based, human
HUVEC [2] = settings: 20 µM; cited from earlier work
HUVEC [3] = settings: 20 µM; cited from earlier work; remark: listed apart in the source

Compound	IC50 (HUVEC [1])	inhibition of HUVEC migration (HUVEC [2])	inhibition of HUVEC proliferation (HUVEC [3])
CC[C@H](C)[C@H](NC(=O)[C@H](CC(N)=O)NC(=O)[C@@H](NC(=O)[C@H](Cc1ccccc1)NC(=O)[C@@H](C)NC(=O)[C@H](Cc1ccccc1)NC(=O)[C@@H]1CCCN1C(=O)[C@H](CCSC)NC(=O)[C@@H](NC(=O)[C@H](CO)NC(=O)[C@H](Cc1ccccc1)NC(=O)[C@H](CCCNC(=N)N)NC(=O)[C@H](CCCNC(=N)N)NC(=O)[C@@H](N)CC(C)C)[C@@H](C)O)[C@@H](C)CC)C(=O)N[C@@H](CC(N)=O)C(=O)N[C@@H](CC(N)=O)C(=O)N[C@H](C(=O)N[C@H](C(=O)N[C@@H](CC(N)=O)C(=O)N[C@@H](Cc1ccccc1)C(N)=O)[C@@H](C)CC)C(C)C [SP2034] (H-LRRFSTMPF[dA]FININNVINF-NH2)	0.54 ± 0.19 µM	–	–
LRRFSTMPFMFCNINNVCNF [SP2000]	–	60%	70%
LRRFSTMPFMFININNVINF-NH2 [SP2024]	7.45 ± 5.7 µM	–	–
